PMC10350923, “In Vitro and In Vivo Biological Activities of Dipicolinate Oxovanadium(IV) Complexes” (Journal of Medicinal Chemistry, 2023)

Tests used:
[1] = system: HCT116 (colorectal carcinoma cell line); test: MTS cell viability assay, HCT116; type: cell-based, human; conditions: Homo sapiens, HCT-116, 48 h of exposure, mean ± SEM
[2] = system: A2780 (ovarian carcinoma cell line); test: MTS cell viability assay, A2780; type: cell-based, human; conditions: Homo sapiens, A2780, 48 h of exposure, mean ± SEM
HCT116-DoxR cells [3] = test: Alexa Fluor 488-annexin V/PI apoptosis assay, flow cytometry; type: cell-based, human; conditions: 48 h, complexes at IC50, cisplatin 5 μM, Dox 6 μM
[4] = system: HCT116-DoxR (doxorubicin-resistant colorectal carcinoma cell line); conditions: doxorubicin in resistant line; cited from earlier work
HCT116-DoxR cells [5] = test: Cell cycle progression, PI, flow cytometry; conditions: HCT116-DoxR, 3, 9, 24, 32 h; complexes at IC50, cisplatin 5 μM, Dox 6 μM
HCT116-DoxR cells [6] = test: Autophagy induction, Green Detection Reagent, flow cytometry; conditions: 48 h, complexes at IC50, cisplatin 5 μM, Dox 6 μM

COc1cccc2c1C(=O)c1c(O)c3c(c(O)c1C2=O)C[C@@](O)(C(=O)CO)C[C@@H]3O[C@H]1C[C@H](N)[C@H](O)[C@H](C)O1 [doxorubicin, reference compound]
IC50 [1]: 500 ± 100 nM | IC50 [2]: 100 ± 40 nM | early apoptosis (HCT116-DoxR cells [3]): 19.0 ± 4.4% | necrosis (HCT116-DoxR cells [3]): 11.2 ± 2.0% | percentage of apoptosis (total) (HCT116-DoxR cells [3]): 34% | viable cells (HCT116-DoxR cells [3]): 54.9 ± 4.3% | necrosis (HCT116-DoxR cells [3]; listed as Dox): 11% | viable cells (HCT116-DoxR cells [3]; listed as Dox): about 55% | IC50 [4]: > 6000 nM | cell cycle arrest / cytostatic effect (HCT116-DoxR cells [5]): did not occur | increase of autophagic vesicles over the control (HCT116-DoxR cells [6]): ~2.3 fold
